Source: the supplement of paper PMC9663587

What was measured:
[1] = compound: Cc1nn(C)c(COc2ccc(N3CCN(S(=O)(=O)N(C)C)CC3)cc2)c1-c1cccc2c(CCCOc3cccc4ccccc34)c(C(=O)O)n(CCN3CCOCC3)c12
FMF-03-145-1 = compound: CCC(=O)Nc1ccc(C(=O)Nc2ccc(Nc3ncc4c(n3)N(C)c3ccc(C)cc3C(=O)N4C)cc2)cc1 [FMF-03-145-1]
INK128/MLN0128 = compound: CC(C)n1nc(-c2ccc3oc(N)nc3c2)c2c(N)ncnc21 [INK128/MLN0128]
Buparlisib/NVP-BKM120 = compound: Nc1cc(C(F)(F)F)c(-c2cc(N3CCOCC3)nc(N3CCOCC3)n2)cn1 [Buparlisib/NVP-BKM120]
YKL-5-124 = compound: C=CC(=O)Nc1ccc(C(=O)Nc2[nH]nc3c2CN(C(=O)N[C@H](CN(C)C)c2ccccc2)C3(C)C)cc1 [YKL-5-124]
BVD523 = compound: CC(C)Nc1cc(-c2c[nH]c(C(=O)N[C@H](CO)c3cccc(Cl)c3)c2)c(Cl)cn1 [BVD523]
TGX221 = compound: CC1=CN2C(=O)C=C(N=C2C(=C1)C(C)NC3=CC=CC=C3)N4CCOCC4 [TGX221]
[2] = compound: COc1cccc(OCCCN)c1-c1cc(Nc2cnc(C#N)cn2)n[nH]1
Everolimus = compound: CO[C@H]1C[C@@H]2CC[C@@H](C)[C@@](O)(O2)C(=O)C(=O)N2CCCC[C@H]2C(=O)O[C@H]([C@H](C)C[C@@H]2CC[C@@H](OCCO)[C@H](OC)C2)CC(=O)[C@H](C)/C=C(\C)[C@@H](O)[C@@H](OC)C(=O)[C@H](C)C[C@H](C)/C=C/C=C/C=C/1C [Everolimus]
[3] = compound: CNc1nc(-c2ccc3c(N)n[nH]c3c2)cc(N2C[C@@H](C(=O)NC3CCCCC3)CC[C@H]2C)n1
Paclitaxel = compound: CC(=O)O[C@H]1C(=O)[C@@]2(C)[C@H]([C@H](OC(=O)c3ccccc3)[C@]3(O)C[C@H](OC(=O)[C@H](O)[C@@H](NC(=O)c4ccccc4)c4ccccc4)C(C)=C1C3(C)C)[C@]1(OC(C)=O)CO[C@@H]1C[C@@H]2O [Paclitaxel]; assay: increase in dead-cell fraction, 72 h; higher = more death;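 note: breast cancer cell lines in 384-well plates, stained with Hoechst plus LIVE/DEAD far red dye and imaged, cells above an LDR intensity threshold counted dead, Hoechst-negative corpses included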
Olaparib/AZD2281 = compound: O=C(c1cc(Cc2n[nH]c(=O)c3ccccc23)ccc1F)N1CCN(C(=O)C2CC2)CC1 [Olaparib/AZD2281]; assay: as above
AZD2014 = compound: CNC(=O)c1cccc(-c2ccc3c(N4CCOC[C@@H]4C)nc(N4CCOC[C@@H]4C)nc3n2)c1 [AZD2014]; assay: as above
Volasertib/BI6727 = compound: CC[C@@H]1C(=O)N(C)c2cnc(Nc3ccc(C(=O)N[C@H]4CC[C@H](N5CCN(CC6CC6)CC5)CC4)cc3OC)nc2N1C(C)C [Volasertib/BI6727]; assay: as above
AZD5363 = compound: NC1(C(=O)N[C@@H](CCO)c2ccc(Cl)cc2)CCN(c2nc[nH]c3nccc2-3)CC1 [AZD5363]; assay: as above
Bleomycin = compound: CC1=C(N=C(N=C1N)[C@H](CC(=O)N)NC[C@@H](C(=O)N)N)C(=O)N[C@@H]([C@H](C2=CN=CN2)OC3C(C(C(C(O3)CO)O)O)OC4C(C(C(C(O4)CO)O)OC(=O)N)O)C(=O)N[C@H](C)[C@H]([C@H](C)C(=O)N[C@@H]([C@@H](C)O)C(=O)NCCC5=NC(=CS5)C6=NC(=CS6)C(=O)NCCC[S+](C)C)O [Bleomycin]; settings: main component drawn
Topotecan = compound: CC[C@@]1(O)C(=O)OCc2c1cc1n(c2=O)Cc2cc3c(CN(C)C)c(O)ccc3nc2-1 [Topotecan]
Etoposide = compound: COc1cc([C@@H]2c3cc4c(cc3[C@@H](O[C@@H]3O[C@@H]5CO[C@@H](C)O[C@H]5[C@H](O)[C@H]3O)[C@H]3COC(=O)[C@H]23)OCO4)cc(OC)c1O [Etoposide]
Cisplatin = compound: N.N.Cl[Pt]Cl [Cisplatin]
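Throughout, for GR50, 72 h: breast cancer and non-malignant breast epithelial cell lines, Deep Dye Drop or Dye Drop imaging, nine half-log doses, GR normalized to time-zero plates and DMSO-only controls.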

## AU565
[1]
  GR50, 72 h: > 10 µM
FMF-03-145-1
  GR50, 72 h: 0.00474 µM
INK128/MLN0128
  GR50, 72 h: 0.00529 µM
Buparlisib/NVP-BKM120
  GR50, 72 h: 0.106 µM
YKL-5-124
  GR50, 72 h: < 0.001 µM
BVD523
  GR50, 72 h: > 10 µM
TGX221
  GR50, 72 h: > 10 µM
[2]
  GR50, 72 h: 0.000768 µM
Everolimus
  GR50, 72 h: 0.00185 µM
[3]
  GR50, 72 h: 7.64 µM
Paclitaxel; 0.0001 µM
  increase in dead-cell fraction: 0.0067
Paclitaxel; 0.0003162 µM
  increase in dead-cell fraction: 0.0015
Paclitaxel; 0.001 µM
  increase in dead-cell fraction: 0.0164
Paclitaxel; 0.003162 µM
  increase in dead-cell fraction: 0.226
Paclitaxel; 0.01 µM
  increase in dead-cell fraction: 0.312
Paclitaxel; 0.03162 µM
  increase in dead-cell fraction: 0.333
Paclitaxel; 0.1 µM
  increase in dead-cell fraction: 0.324
Paclitaxel; 0.3162 µM
  increase in dead-cell fraction: 0.278
Paclitaxel; 1 µM
  increase in dead-cell fraction: 0.303
Olaparib/AZD2281; 0.001 µM
  increase in dead-cell fraction: -0.0007
Olaparib/AZD2281; 0.003162 µM
  increase in dead-cell fraction: -0.0016
Olaparib/AZD2281; 0.01 µM
  increase in dead-cell fraction: 0.0011
Olaparib/AZD2281; 0.03162 µM
  increase in dead-cell fraction: -0.0026
Olaparib/AZD2281; 0.1 µM
  increase in dead-cell fraction: 0.0033
Olaparib/AZD2281; 0.3162 µM
  increase in dead-cell fraction: -0.0012
Olaparib/AZD2281; 1 µM
  increase in dead-cell fraction: -0.006
Olaparib/AZD2281; 3.162 µM
  increase in dead-cell fraction: -0.0026
Olaparib/AZD2281; 10 µM
  increase in dead-cell fraction: 0.0043
AZD2014; 0.001 µM
  increase in dead-cell fraction: 0.0342
AZD2014; 0.003162 µM
  increase in dead-cell fraction: 0.0014
AZD2014; 0.01 µM
  increase in dead-cell fraction: 0.032
AZD2014; 0.03162 µM
  increase in dead-cell fraction: 0.0412
AZD2014; 0.1 µM
  increase in dead-cell fraction: 0.0311
AZD2014; 0.3162 µM
  increase in dead-cell fraction: 0.107
AZD2014; 1 µM
  increase in dead-cell fraction: 0.0854
AZD2014; 3.162 µM
  increase in dead-cell fraction: 0.0584
AZD2014; 10 µM
  increase in dead-cell fraction: 0.126
Volasertib/BI6727; 0.0001 µM
  increase in dead-cell fraction: -0.0025
Volasertib/BI6727; 0.0003162 µM
  increase in dead-cell fraction: 0.0017
Volasertib/BI6727; 0.001 µM
  increase in dead-cell fraction: -0.0005
Volasertib/BI6727; 0.003162 µM
  increase in dead-cell fraction: 0.0085
Volasertib/BI6727; 0.01 µM
  increase in dead-cell fraction: 0.284
Volasertib/BI6727; 0.03162 µM
  increase in dead-cell fraction: 0.353
Volasertib/BI6727; 0.1 µM
  increase in dead-cell fraction: 0.412
Volasertib/BI6727; 0.3162 µM
  increase in dead-cell fraction: 0.353
Volasertib/BI6727; 1 µM
  increase in dead-cell fraction: 0.152
AZD5363; 0.001 µM
  increase in dead-cell fraction: -0.0047
AZD5363; 0.003162 µM
  increase in dead-cell fraction: 0.0058
AZD5363; 0.01 µM
  increase in dead-cell fraction: 0.0054
AZD5363; 0.03162 µM
  increase in dead-cell fraction: 0.0087
AZD5363; 0.1 µM
  increase in dead-cell fraction: 0.0196
AZD5363; 0.3162 µM
  increase in dead-cell fraction: -0.0036
AZD5363; 1 µM
  increase in dead-cell fraction: 0.0183
AZD5363; 3.162 µM
  increase in dead-cell fraction: 0.0124
AZD5363; 10 µM
  increase in dead-cell fraction: 0.0512

## SUM149
Bleomycin
  GR50, 72 h: 0.039 µM
[1]
  GR50, 72 h: 5.97 µM
FMF-03-145-1
  GR50, 72 h: 0.00558 µM
Topotecan
  GR50, 72 h: 0.00569 µM
INK128/MLN0128
  GR50, 72 h: 0.163 µM
Buparlisib/NVP-BKM120
  GR50, 72 h: 1.45 µM
YKL-5-124
  GR50, 72 h: < 0.001 µM
BVD523
  GR50, 72 h: 1.96 µM
Etoposide
  GR50, 72 h: 0.127 µM
TGX221
  GR50, 72 h: > 10 µM
Cisplatin
  GR50, 72 h: 0.571 µM
[2]
  GR50, 72 h: 0.000514 µM
Everolimus
  GR50, 72 h: > 10 µM
[3]
  GR50, 72 h: > 10 µM

## SUM159
Bleomycin
  GR50, 72 h: 0.262 µM
[1]
  GR50, 72 h: > 10 µM
FMF-03-145-1
  GR50, 72 h: 0.00548 µM
Topotecan
  GR50, 72 h: 0.0182 µM
INK128/MLN0128
  GR50, 72 h: 0.0561 µM
Buparlisib/NVP-BKM120
  GR50, 72 h: 2.21 µM
YKL-5-124
  GR50, 72 h: < 0.001 µM
BVD523
  GR50, 72 h: 1.91 µM
Etoposide
  GR50, 72 h: 0.398 µM
TGX221
  GR50, 72 h: > 10 µM
Cisplatin
  GR50, 72 h: 4.32 µM
[2]
  GR50, 72 h: 0.000711 µM
Everolimus
  GR50, 72 h: > 10 µM
[3]
  GR50, 72 h: > 10 µM
